Test results published in patent US10548318B2, “N-(tetrazol-5-yl)- and N-(triazol-5-yl)arylcarboxamide derivatives with herbicidal action” (Bayer CropScience Aktiengesellschaft, priority 2015, dated 2020).

Assays:
Format in all cases: in vivo
[1] = tested on: Amaranthus retroflexus; test: Pre-emergence herbicidal action against harmful plants; conditions: 504 h, application rate 320 g/ha, visual scoring after 3 weeks vs untreated controls, read-out: herbicidal activity in percent against Amaranthus retroflexus
From the text: (§1) Seeds of monocotyledonous and dicotyledonous weed plants and crop plants are laid out in wood-fiber pots in sandy loam and covered with soil. The compounds of the invention, formulated in the form of wettable powders (WP) or as emulsion concentrates (EC), are then applied to the surface of the covering soil in the form of an aqueous suspension or emulsion at a water application rate equating to 600 to 800 I/ha, with addition of 0.2% wetting agent. After the treatment, the pots are placed in a greenhouse and kept under good growth conditions for the trial plants. The damage to the test plants is scored visually after a test period of 3 weeks by comparison with untreated controls (herbicidal activity in percent (%): 100% activity=the plants have died, 0% activity=like control plants). Here, for example, the compounds Nos. 1-384, 1-390, 3-384, 5-384, 19-384, 9-390, 21-384, 23-384 and 28-390, at an application rate of 320 g/ha, each show an activity of at least 80% against Stellaria media and Amaranthus retroflexus.

[2] = tested on: Stellaria media; test: as above; conditions: 504 h, application rate 320 g/ha, visual scoring after 3 weeks vs untreated controls, read-out: herbicidal activity in percent against Stellaria media
From the text: as §1

[3] = tested on: Stellaria media; test: Post-emergence herbicidal action against harmful plants; conditions: 504 h, application rate 80 g/ha, visual assessment after about 3 weeks vs untreated controls, read-out: herbicidal action in percent against Stellaria media
Procedure: (§2) Seeds of monocotyledonous and dicotyledonous weed and crop plants are laid out in sandy loam soil in wood-fiber pots, covered with soil and cultivated in a greenhouse under good growth conditions. 2 to 3 weeks after sowing, the test plants are treated at the one-leaf stage. The compounds of the invention, formulated in the form of wettable powders (WP) or as emulsion concentrates (EC), are then sprayed onto the green parts of the plants in the form of an aqueous suspension or emulsion at a water application rate equating to 600 to 800 I/ha, with addition of 0.2% wetting agent. After the test plants have been left to stand in the greenhouse under optimal growth conditions for about 3 weeks, the action of the preparations is assessed visually in comparison to untreated controls (herbicidal action in percent (%): 100% activity=the plants have died, 0% activity=like control plants). Here, for example, the compounds Nos. 1-384, 1-390, 3-384, 5-384, 19-384, 9-390, 21-384, 23-384, 28-390 and 32-384, at an application rate of 80 g/ha, each show an activity of at least 80% against Stellaria media and Veronica persica.

[4] = tested on: Veronica persica; test: as above; conditions: 504 h, application rate 80 g/ha, visual assessment after about 3 weeks vs untreated controls, read-out: herbicidal action in percent against Veronica persica
Procedure: as §2

[5] = tested on: Polygonum convolvulus (POLCO); test: Comparative experiment in pre-emergence; conditions: dosage 320 g/ha
From the text: as §1
For comparative purposes, the herbicidal activity of some compounds according to the invention and the most structurally similar compounds known from the prior art were tested.

Compound	pest or weed control at 320 g/ha [1]	pest or weed control at 320 g/ha [2]	pest or weed control at 80 g/ha [3]	pest or weed control at 80 g/ha [4]	Herbicidal activity against POLCO [5]
CCOC(=O)OC(C)n1nnn(C)c1=NC(=O)c1ccc(C(F)(F)F)c(SC)c1Cl (stereo not shown) [No. 1-384, 1-(5-{[2-chloro-3-(methylsulfanyl)-4-(trifluoromethyl)benzoyl]imino}-4-methyl-4,5-dihydro-1H-tetrazol-1-yl)ethyl ethyl carbonate]	≥ 80%	≥ 80%	≥ 80%	≥ 80%	
CCOC(=O)OC(C)n1nnn(C)c1=NC(=O)c1ccc(C)c(S(C)(=O)=O)c1Cl (stereo not shown) [No. 1-390, 1-(5-{[2-chloro-4-methyl-3-(methylsulfonyl)benzoyl]imino}-4-methyl-4,5-dihydro-1H-tetrazol-1-yl)ethyl ethyl carbonate]	≥ 80%	≥ 80%	≥ 80%	≥ 80%	100%
COC(=O)OC(C)n1nnn(C)c1=NC(=O)c1ccc(C(F)(F)F)c(SC)c1Cl (stereo not shown) [No. 3-384, 1-(5-{[2-chloro-3-(methylsulfanyl)-4-(trifluoromethyl)benzoyl]imino}-4-methyl-4,5-dihydro-1H-tetrazol-1-yl)ethyl methyl carbonate]	≥ 80%	≥ 80%	≥ 80%	≥ 80%	
CSc1c(C(F)(F)F)ccc(C(=O)N=c2n(C)nnn2C(C)OC(=O)OC2CCCCC2)c1Cl (stereo not shown) [No. 5-384, 1-(5-{[2-chloro-3-(methylsulfanyl)-4-(trifluoromethyl)benzoyl]imino}-4-methyl-4,5-dihydro-1H-tetrazol-1-yl)ethyl cyclohexyl carbonate]	≥ 80%	≥ 80%	≥ 80%	≥ 80%	
CCOC(=O)OC(C)OC(=Nc1nnnn1C)c1ccc(C(F)(F)F)c(SC)c1Cl (stereo not shown) [No. 19-384, 1-[(ethoxycarbonyl)oxy]ethyl 2-chloro-3-(methylsulfanyl)-N-(1-methyl-1H-tetrazol-5-yl)-4-(trifluoromethyl)benzenecarboximidate]	≥ 80%	≥ 80%	≥ 80%	≥ 80%	
CCOC(=O)OC(C)OC(=Nc1nnnn1C)c1ccc(C)c(S(C)(=O)=O)c1Cl (stereo not shown) [No. 19-390, 1-[(ethoxycarbonyl)oxy]ethyl 2-chloro-4-methyl-3-(methylsulfonyl)-N-(1-methyl-1H-tetrazol-5-yl)benzenecarboximidate]					100%
COC(=O)OC(C)OC(=Nc1nnnn1C)c1ccc(C(F)(F)F)c(SC)c1Cl (stereo not shown) [No. 21-384, 1-[(Methoxycarbonyl)oxy]ethyl 2-chloro-3-(methylsulfanyl)-N-(1-methyl-1H-tetrazol-5-yl)-4-(trifluoromethyl)benzenecarboximidate]	≥ 80%	≥ 80%	≥ 80%	≥ 80%	100%
CSc1c(C(F)(F)F)ccc(C(=Nc2nnnn2C)OC(C)OC(=O)OC2CCCCC2)c1Cl (stereo not shown) [No. 23-384, 1-{[(cyclohexyloxy)carbonyl]oxy}ethyl 2-chloro-3-(methylsulfanyl)-N-(1-methyl-1H-tetrazol-5-yl)-4-(trifluoromethyl)benzenecarboximidate]	≥ 80%	≥ 80%	≥ 80%	≥ 80%	90%
CCOC(=O)OC(C)N(C(=O)c1ccc(C)c(S(C)(=O)=O)c1Cl)c1nnnn1C (stereo not shown) [No. 28-390, 1-{[2-chloro-4-methyl-3-(methylsulfonyl)benzoyl](1-methyl-1H-tetrazol-5-yl)amino}ethyl ethyl carbonate]	≥ 80%	≥ 80%	≥ 80%	≥ 80%	90%
